Data from ChEMBL document CHEMBL5528010, “The discovery of aryl-2-nitroethyl triamino pyrimidines as anti-Trypanosoma brucei agents” (Eur J Med Chem, 2024).

Tests used:
THP-1 = test: Cytotoxicity against human THP-1 cells assessed as reduction in cell viability measured after 72 hrs by MTT assay; assay type: functional
[1] = Inhibition of N-terminal his 6 tagged recombinant Trypanosoma brucei PTR1 expressed in Escherichia coli BL21 (DE3) cells preincubated for 10 mins followed by NADPH addition and measured after 10 to 50 mins by multilabel plate reader method; assay type: cell-based
Trypanosoma brucei [2] = test: Antiparasitic activity against blood stream form Trypanosoma brucei assessed as parasitic growth inhibition incubated for 72 hrs by resazurin dye based fluorescence analysis; assay type: functional, organism-based
[3] = Selectivity index, ratio of CC50 for human THP-1 cells to EC50 for bloodstream form Trypanosoma brucei; assay type: toxicity; conditions: read-out: Ratio CC50/EC50
Pteridine reductase 1 = target: T1, Pteridine reductase 1 (Leishmania major, UniProt Q01782); test: Inhibition of N-terminal his 6 tagged recombinant Leishmania major PTR1 expressed in Escherichia coli BL21 (DE3) cells preincubated for 10 mins followed by NADPH addition and measured after 10 to 50 mins by multilabel plate reader method
T1 sequence (Q01782 whole entry): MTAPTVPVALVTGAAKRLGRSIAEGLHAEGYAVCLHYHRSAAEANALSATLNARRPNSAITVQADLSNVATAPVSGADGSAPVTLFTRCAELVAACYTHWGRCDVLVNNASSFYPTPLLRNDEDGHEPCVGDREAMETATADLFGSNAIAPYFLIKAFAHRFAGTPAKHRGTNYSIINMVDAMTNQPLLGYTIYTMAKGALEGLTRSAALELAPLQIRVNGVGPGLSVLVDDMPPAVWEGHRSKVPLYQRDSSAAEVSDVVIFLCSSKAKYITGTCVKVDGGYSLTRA

Leishmania infantum = test: Antiparasitic activity against Leishmania infantum intracellular amastigotes MHOM/BR/1972/BH46 infected in human THP-1 cells assessed as inhibition of parasitic growth at 50 uM pre-infected for 24 hrs followed by compound addition and measured after 48 hrs relative to control; assay type: functional; conditions: MHOM/BR/1972/BH46, THP-1
Trypanosoma brucei [4] = test: Antiparasitic activity against blood stream form Trypanosoma brucei assessed as parasitic growth inhibition at 10 uM incubated for 72 hrs by resazurin dye based fluorescence analysis relative to control; assay type: functional; design: scale not given: the % may be the effect or the level left
[5] = Tmax in BALB/c mouse at 20 mg/kg, po measured upto 24 hrs by LC-MS/MS analysis; assay type: ADME, organism-based; conditions: in vivo
[6] = Cmax in BALB/c mouse at 20 mg/kg, po measured upto 24 hrs by LC-MS/MS analysis; assay type: ADME, organism-based; conditions: in vivo
[7] = AUC last in BALB/c mouse at 20 mg/kg, po measured upto 24 hrs by LC-MS/MS analysis; assay type: ADME, organism-based; conditions: in vivo
[8] = Half life in BALB/c mouse at 20 mg/kg, po measured upto 24 hrs by LC-MS/MS analysis; assay type: ADME, organism-based; conditions: in vivo
CYP2D6 = test: Selectivity index, ratio of IC50 for CYP2D6 (unknown origin) to EC50 for blood stream form Trypanosoma brucei; assay type: toxicity; conditions: read-out: Ratio IC50/EC50
[9] = Selectivity index, ratio of GI50 for human A549 cells to EC50 for blood stream form Trypanosoma brucei; assay type: toxicity; conditions: read-out: Ratio GI50/EC50
Cytochrome P450 2D6 = Cytochrome P450 2D6 (Homo sapiens, UniProt P10635); test: Inhibition of CYP2D6 (unknown origin) expressed in baculovirus infected insect cells using luciferin as substrate preincubated for 30 mins followed by NADPH addition and measured after 30 mins by luminescence based analysis; assay type: ADME, Insect cell
Chain of Cytochrome P450 2D6 (P10635 whole entry): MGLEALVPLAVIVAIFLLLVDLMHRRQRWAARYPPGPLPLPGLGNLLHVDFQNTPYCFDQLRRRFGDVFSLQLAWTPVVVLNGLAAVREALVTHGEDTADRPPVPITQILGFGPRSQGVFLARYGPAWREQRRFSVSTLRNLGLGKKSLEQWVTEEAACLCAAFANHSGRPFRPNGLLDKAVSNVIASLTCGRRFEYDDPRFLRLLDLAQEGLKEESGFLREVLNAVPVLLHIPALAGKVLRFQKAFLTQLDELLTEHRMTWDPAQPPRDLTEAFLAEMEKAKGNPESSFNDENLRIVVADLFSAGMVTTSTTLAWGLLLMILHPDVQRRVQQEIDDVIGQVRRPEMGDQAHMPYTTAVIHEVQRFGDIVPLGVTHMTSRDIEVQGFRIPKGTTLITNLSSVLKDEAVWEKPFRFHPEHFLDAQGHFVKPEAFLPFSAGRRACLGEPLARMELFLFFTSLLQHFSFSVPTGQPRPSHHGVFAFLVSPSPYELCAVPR

CYP2C19 = test: Selectivity index, ratio of IC50 for CYP2C19 (unknown origin) to EC50 for blood stream form Trypanosoma brucei; assay type: toxicity; conditions: read-out: Ratio IC50/EC50
Cytochrome P450 3A4 = Cytochrome P450 3A4 (Homo sapiens, UniProt P08684); test: Inhibition of CYP3A4 (unknown origin) expressed in baculovirus infected insect cells using luciferin as substrate preincubated for 30 mins followed by NADPH addition and measured after 30 mins by luminescence based analysis; assay type: ADME, Insect cell
Chain of Cytochrome P450 3A4 (P08684 whole entry): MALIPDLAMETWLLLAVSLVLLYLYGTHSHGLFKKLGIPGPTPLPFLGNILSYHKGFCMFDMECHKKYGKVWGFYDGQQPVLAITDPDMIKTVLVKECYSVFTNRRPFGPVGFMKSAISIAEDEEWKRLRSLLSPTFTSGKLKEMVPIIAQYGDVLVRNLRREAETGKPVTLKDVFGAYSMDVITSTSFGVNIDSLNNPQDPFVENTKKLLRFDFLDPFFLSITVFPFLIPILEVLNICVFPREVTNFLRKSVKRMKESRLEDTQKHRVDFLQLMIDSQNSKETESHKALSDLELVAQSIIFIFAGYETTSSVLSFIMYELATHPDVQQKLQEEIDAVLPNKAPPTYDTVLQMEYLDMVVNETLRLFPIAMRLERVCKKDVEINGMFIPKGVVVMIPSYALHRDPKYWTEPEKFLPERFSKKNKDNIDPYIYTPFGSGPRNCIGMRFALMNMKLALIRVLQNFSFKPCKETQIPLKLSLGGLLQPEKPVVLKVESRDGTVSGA

CYP3A4 = test: Selectivity index, ratio of IC50 for CYP3A4 (unknown origin) to EC50 for blood stream form Trypanosoma brucei; assay type: toxicity; conditions: read-out: Ratio IC50/EC50
CYP1A2 = test: Selectivity index, ratio of IC50 for CYP1A2 (unknown origin) to EC50 for blood stream form Trypanosoma brucei; assay type: toxicity; conditions: read-out: Ratio IC50/EC50
hERG = test: Selectivity index, ratio of IC50 for human ERG to EC50 for blood stream form Trypanosoma brucei; assay type: toxicity; conditions: read-out: Ratio IC50/EC50
CYP2C9 = test: Selectivity index, ratio of IC50 for CYP2C9 (unknown origin) to EC50 for blood stream form Trypanosoma brucei; assay type: toxicity; conditions: read-out: Ratio IC50/EC50
[10] = target: Voltage-gated inwardly rectifying potassium channel KCNH2 (Homo sapiens, UniProt Q12809); test: Inhibition of human ERG incubated for 2 hrs by fluorescence polarization assay; assay type: toxicity
Chain of Voltage-gated inwardly rectifying potassium channel KCNH2 (Q12809 whole entry): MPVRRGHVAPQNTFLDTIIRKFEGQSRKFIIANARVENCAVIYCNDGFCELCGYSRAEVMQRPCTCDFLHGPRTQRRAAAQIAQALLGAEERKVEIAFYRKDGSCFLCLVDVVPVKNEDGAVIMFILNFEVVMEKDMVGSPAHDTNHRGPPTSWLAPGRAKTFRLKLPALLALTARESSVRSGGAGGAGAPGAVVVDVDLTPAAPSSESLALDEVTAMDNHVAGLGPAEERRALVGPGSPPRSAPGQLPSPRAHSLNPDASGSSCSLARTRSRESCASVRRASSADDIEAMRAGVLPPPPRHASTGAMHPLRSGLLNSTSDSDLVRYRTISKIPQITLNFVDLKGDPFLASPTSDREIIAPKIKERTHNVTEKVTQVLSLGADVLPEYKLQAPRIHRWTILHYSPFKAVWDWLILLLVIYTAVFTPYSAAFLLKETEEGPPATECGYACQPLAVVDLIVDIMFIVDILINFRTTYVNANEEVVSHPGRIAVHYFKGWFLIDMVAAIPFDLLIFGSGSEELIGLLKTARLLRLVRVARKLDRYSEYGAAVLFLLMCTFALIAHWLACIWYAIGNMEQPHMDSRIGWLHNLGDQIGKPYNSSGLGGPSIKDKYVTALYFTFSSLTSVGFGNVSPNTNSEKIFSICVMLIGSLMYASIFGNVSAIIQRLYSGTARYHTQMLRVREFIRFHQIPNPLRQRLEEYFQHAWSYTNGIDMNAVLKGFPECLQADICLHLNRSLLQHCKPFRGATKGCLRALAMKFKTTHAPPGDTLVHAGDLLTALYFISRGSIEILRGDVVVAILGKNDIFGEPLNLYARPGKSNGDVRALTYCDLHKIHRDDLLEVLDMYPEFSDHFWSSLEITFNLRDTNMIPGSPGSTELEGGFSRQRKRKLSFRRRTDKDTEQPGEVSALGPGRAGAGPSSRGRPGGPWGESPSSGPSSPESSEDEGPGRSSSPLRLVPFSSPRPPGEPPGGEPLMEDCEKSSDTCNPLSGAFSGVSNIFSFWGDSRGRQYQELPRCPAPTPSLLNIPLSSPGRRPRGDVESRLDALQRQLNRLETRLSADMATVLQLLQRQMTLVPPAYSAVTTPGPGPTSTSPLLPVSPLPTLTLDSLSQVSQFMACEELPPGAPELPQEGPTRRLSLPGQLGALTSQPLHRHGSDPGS

[11] = Selectivity index, ratio of IC50 for human A549 cells to EC50 for blood stream form Trypanosoma brucei; assay type: toxicity; conditions: read-out: Ratio IC50/EC50
Cytochrome P450 2C9 = Cytochrome P450 2C9 (Homo sapiens, UniProt P11712); test: Inhibition of CYP2C9 (unknown origin) expressed in baculovirus infected insect cells using luciferin as substrate preincubated for 30 mins followed by NADPH addition and measured after 30 mins by luminescence based analysis; assay type: ADME, Insect cell
Chain of Cytochrome P450 2C9 (P11712 whole entry): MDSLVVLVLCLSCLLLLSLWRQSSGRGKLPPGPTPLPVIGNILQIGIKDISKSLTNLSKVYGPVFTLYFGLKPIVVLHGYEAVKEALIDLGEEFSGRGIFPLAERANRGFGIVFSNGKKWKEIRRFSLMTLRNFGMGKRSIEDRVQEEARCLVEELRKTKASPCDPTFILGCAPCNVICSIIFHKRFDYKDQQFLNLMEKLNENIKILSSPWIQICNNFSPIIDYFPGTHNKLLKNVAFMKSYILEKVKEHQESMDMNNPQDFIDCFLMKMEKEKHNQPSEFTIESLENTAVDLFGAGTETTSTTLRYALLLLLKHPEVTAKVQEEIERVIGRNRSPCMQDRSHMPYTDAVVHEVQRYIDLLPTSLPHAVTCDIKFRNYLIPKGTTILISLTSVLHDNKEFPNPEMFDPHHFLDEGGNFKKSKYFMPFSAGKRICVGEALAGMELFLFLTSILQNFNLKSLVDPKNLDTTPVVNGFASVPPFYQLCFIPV

Cytochrome P450 1A2 = target: T2, Cytochrome P450 1A2 (Homo sapiens, UniProt P05177); test: Inhibition of CYP1A2 (unknown origin) expressed in baculovirus infected insect cells using luciferin as substrate preincubated for 30 mins followed by NADPH addition and measured after 30 mins by luminescence based analysis; assay type: ADME, Insect cell
T2 sequence (P05177 whole entry): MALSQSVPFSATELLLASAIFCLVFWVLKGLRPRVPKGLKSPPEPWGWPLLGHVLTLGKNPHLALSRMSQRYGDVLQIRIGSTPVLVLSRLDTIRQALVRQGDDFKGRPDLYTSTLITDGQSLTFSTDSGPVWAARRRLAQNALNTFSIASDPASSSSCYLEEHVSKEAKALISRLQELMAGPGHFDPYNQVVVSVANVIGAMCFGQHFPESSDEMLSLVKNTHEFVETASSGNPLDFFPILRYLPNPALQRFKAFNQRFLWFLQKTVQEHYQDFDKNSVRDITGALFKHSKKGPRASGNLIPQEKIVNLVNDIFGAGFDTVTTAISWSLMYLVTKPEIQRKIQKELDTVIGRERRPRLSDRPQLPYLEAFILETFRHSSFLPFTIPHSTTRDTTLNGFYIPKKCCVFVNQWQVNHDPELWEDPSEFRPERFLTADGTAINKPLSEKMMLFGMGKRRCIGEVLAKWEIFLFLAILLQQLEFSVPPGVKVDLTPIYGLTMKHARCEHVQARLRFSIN

Cytochrome P450 2C19 = Cytochrome P450 2C19 (Homo sapiens, UniProt P33261); test: Inhibition of CYP2C19 (unknown origin) expressed in baculovirus infected insect cells using luciferin as substrate preincubated for 30 mins followed by NADPH addition and measured after 30 mins by luminescence based analysis; assay type: ADME, Insect cell
Chain of Cytochrome P450 2C19 (P33261 whole entry): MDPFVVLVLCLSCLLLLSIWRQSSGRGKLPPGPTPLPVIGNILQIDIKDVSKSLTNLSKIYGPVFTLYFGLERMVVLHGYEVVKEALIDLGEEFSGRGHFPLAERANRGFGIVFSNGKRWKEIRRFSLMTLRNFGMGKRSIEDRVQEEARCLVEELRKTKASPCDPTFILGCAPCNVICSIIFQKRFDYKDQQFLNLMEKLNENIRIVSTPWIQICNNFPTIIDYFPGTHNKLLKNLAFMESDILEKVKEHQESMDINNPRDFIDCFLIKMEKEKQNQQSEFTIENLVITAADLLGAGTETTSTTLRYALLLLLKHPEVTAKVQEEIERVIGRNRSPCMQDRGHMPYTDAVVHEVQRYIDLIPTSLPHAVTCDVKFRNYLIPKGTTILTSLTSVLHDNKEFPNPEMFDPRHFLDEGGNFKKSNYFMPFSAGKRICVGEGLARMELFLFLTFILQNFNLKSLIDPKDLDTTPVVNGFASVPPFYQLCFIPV

[12] = Growth inhibition of human A549 cells measured after 48 hrs by celltiter-glo assay; assay type: toxicity, cell-based
[13] = Mitochondrial toxicity in human A549 cells; assay type: cell-based

SMILES	CC50 (THP-1) [µM]	IC50 [1] [µM]	EC50 (Trypanosoma brucei [2]) [µM]	selectivity ratio [3]	IC50 (Pteridine reductase 1) [µM]	inhibition at 50 µM (Leishmania infantum) [%]	other results
Nc1nc(N)c(C(C[N+](=O)[O-])c2ccccc2OCc2ccccc2)c(N)n1 (stereo unspecified)	> 100	0.24	0.6	> 167	51.3	81.1	–
Nc1nc(N)c(C(C[N+](=O)[O-])c2ccccc2OCc2ccccc2[N+](=O)[O-])c(N)n1 (stereo unspecified)	–	0.26	–	–	46.2	11.7	Activity (Trypanosoma brucei [4]): 48%
Nc1nc(N)c(C(C[N+](=O)[O-])c2ccccc2OCc2cccc(Cl)c2)c(N)n1 (stereo unspecified)	12.5	0.6	0.4	31	51.3	61	Tmax [5]: 0.5 h; Cmax [6]: 446 ng/mL; AUC(0-t) at 24 h [7]: 1820 ng·h/mL; half-life [8]: 2.4 h
Nc1nc(N)c(C(C[N+](=O)[O-])c2cccc3c2OCO3)c(N)n1 (stereo unspecified)	12.5	0.03	1.21	10	47.6	36	Tmax [5]: 0.5 h; Cmax [6]: 399 ng/mL; AUC(0-t) at 24 h [7]: 2700 ng·h/mL; half-life [8]: 2.1 h
Cc1ccc(C(C[N+](=O)[O-])c2c(N)nc(N)nc2N)s1 (stereo unspecified)	100	0.39	2.41	42	–	15.4	–
CCc1nc(N)nc(N)c1-c1ccc(Cl)cc1 [PYRIMETHAMINE]	–	0.09	–	–	–	–	–
Nc1nc(N)c(C(C[N+](=O)[O-])c2ccccc2OCc2ccc(Cl)c(Cl)c2)c(N)n1 (stereo unspecified)	25	0.27	0.3	83	46	11.7	selectivity ratio (CYP2D6): 20; selectivity ratio [9]: 33; IC50 (Cytochrome P450 2D6): 5.9 µM; selectivity ratio (CYP2C19): 26; Tmax [5]: 0.5 h; IC50 (Cytochrome P450 3A4): 5.9 µM; selectivity ratio (CYP3A4): 20; selectivity ratio (CYP1A2): 4; selectivity ratio (hERG): > 300; selectivity ratio (CYP2C9): 11; Cmax [6]: 373 ng/mL; IC50 [10]: > 100 µM; selectivity ratio [11]: 13; IC50 (Cytochrome P450 2C9): 3.2 µM; IC50 (Cytochrome P450 1A2): 1.2 µM; AUC(0-t) at 24 h [7]: 1180 ng·h/mL; half-life [8]: 3 h; IC50 (Cytochrome P450 2C19): 8 µM; GI50 at 48 h [12]: 10 µM; IC50 [13]: 3.9 µM
COc1cccc(OC)c1C(C[N+](=O)[O-])c1c(N)nc(N)nc1N (stereo unspecified)	12.5	0.13	1.68	7	70.7	79.8	–
Nc1nc(N)c(C(C[N+](=O)[O-])c2cccs2)c(N)n1 (stereo unspecified)	50	0.19	3.33	15	4.9	22.5	–
Nc1nc(N)c(C(C[N+](=O)[O-])c2ccc3c(c2)OCO3)c(N)n1 (stereo unspecified)	25	0.25	0.5	50	–	–	–
Nc1nc(N)c(C(C[N+](=O)[O-])c2cccc(Br)c2)c(N)n1 (stereo unspecified)	50	0.05	0.65	118	58.1	30.2	–
Nc1nc(N)c(C(C[N+](=O)[O-])c2ccco2)c(N)n1 (stereo unspecified)	50	0.16	5.05	10	63.8	–	–
CCCCCCCCCCCCCCCCOP(=O)([O-])OCC[N+](C)(C)C [MILTEFOSINE]	–	–	–	–	–	1.29	–
Nc1nc(N)c(C(C[N+](=O)[O-])c2ccc(Cl)cc2)c(N)n1 (stereo unspecified)	25	< 0.1	1.28	19	–	–	–
Nc1nc(N)c(C(C[N+](=O)[O-])c2ccc(Cl)c(Cl)c2)c(N)n1 (stereo unspecified)	25	0.15	0.82	31	60.2	53.9	–
Nc1nc(N)c(C(C[N+](=O)[O-])c2c[nH]c3ccccc23)c(N)n1 (stereo unspecified)	–	< 0.1	–	–	13.9	4	Activity (Trypanosoma brucei [4]): 28%
COc1cc(C(C[N+](=O)[O-])c2c(N)nc(N)nc2N)ccc1O (stereo unspecified)	50	0.07	2.13	23	19.8	21.6	–
Nc1cc(N)nc(N)n1	–	2.38	–	–	4.01	–	–
Nc1nc(N)c(C(C[N+](=O)[O-])c2ccc3c(c2)OCCO3)c(N)n1 (stereo unspecified)	12.5	0.23	1.11	11	2.5	54.4	Tmax [5]: 1 h; Cmax [6]: 25 ng/mL; AUC(0-t) at 24 h [7]: 107 ng·h/mL; half-life [8]: 4.5 h
COc1ccc(C(C[N+](=O)[O-])c2c(N)nc(N)nc2N)cc1OC (stereo unspecified)	25	0.12	2.33	11	2.4	62.4	–
Nc1nc(N)c(C(C[N+](=O)[O-])c2cccc([N+](=O)[O-])c2)c(N)n1 (stereo unspecified)	50	< 0.1	1.19	42	63.4	74.2	–
Nc1nc(N)c(C(C[N+](=O)[O-])c2ccc3c(c2)CCO3)c(N)n1 (stereo unspecified)	50	0.39	4.4	11	21.3	21.1	–
Nc1nc(N)c(C(C[N+](=O)[O-])c2ccc(Br)cc2)c(N)n1 (stereo unspecified)	25	< 0.1	1.59	16	64.1	83.4	–
Nc1nc(N)c(C(C[N+](=O)[O-])c2ccc(OCc3ccc(Cl)c(Cl)c3)cc2)c(N)n1 (stereo unspecified)	50	0.22	0.34	147	49.7	11.4	Tmax [5]: 2 h; Cmax [6]: 63 ng/mL; AUC(0-t) at 24 h [7]: 435 ng·h/mL; half-life [8]: 3 h
